Laboratory results published in US5492905A, “1-bolizazepin-2,5-diones” (Zeneca Limited, priority 1992, dated 1996).

Legend:
[1] = tested on: neuronal damage in the hippocampus; assay: gerbil ischemic model (bilateral carotid occlusion), neuroprotection; assay type: in vivo, Mongolian gerbils; conditions: dosed twice with 20 mg/kg body weight ip (e.g. 45 min before and 5 min after occlusion); 10 min occlusion; brains taken after 4 days
Description: When testing in vivo using the gerbil ischemic model, adult female Mongolian gerbils (50-70 g) are anesthetized with 2 to 3% halothane. The bilateral common carotid arteries at the neck are exposed and occluded with microaneurysm clips. After 10 min (unless specified), the clips are removed and the blood flow through the carotid arteries is restored and the skin is sutured. Test compounds are administered intraperitoneally both pre- and post-occlusion, for example 45 minutes before and 5 minutes after occlusion of the carotid arteries. Sham-operated animals are treated in the same manner except that the arteries are not clamped. Gross behavioral observations along with motor activity are recorded for 2 hr on the first (24 hr) day following the occlusion. After 4 days, subjects are sacrificed (decapitation), brains are removed, fixed, sectioned and stained with hematoxylin/eosin and cresyl violet.
The brain sections are rated for neuronal damage in the hippocampus using the following rating scale:
1=slight damage (up to 25%) - restricted CA1/subiculum border
2=moderate damage (up to 50%) - obvious damage, restricted to less than half of CA1 field
3=marked damage (up to 75%) - involving greater than half of CA1 field
4=damage extending beyond CA1 field
Results can be reported as the percentage of neuroprotection afforded by a particular dose and dosing regimen.
Sections (7 micron) are evaluated from each brain. Occasionally, asymmetrical damage may be noted and the rating assigned is the average score of the two sides. The average brain damage rating score for each group is recorded, and the damage scores of the drug treated group are compared to the vehicle-treated group using Wilcoxcon-Rank Sum test.

[2] = biological target: T1, glycine receptor of the NMDA receptor complex (Rattus norvegicus, UniProt P35439); assay: [3H]-glycine binding assay; set-up: species or system Sprague-Dawley rats; conditions: 20 nM [3H]-glycine, rat neuronal synaptic membranes (cortices and hippocampi), pH 7.1, 30 min, 4° C.
T1 construct: neuronal synaptic membranes are prepared from adult (about 250 g) male Sprague-Dawley rats; from tissue; host or cells: synaptic membranes of cortices and hippocampi of adult male Sprague-Dawley rats
Description: The actions of compounds of formula I as antagonists at the glycine receptor of the NMDA receptor complex can be shown by standard tests such as the [^3 H]-glycine binding assay, by functional assays in vitro such as tests for measuring glutamate evoked contractions of the guinea pig ileum, and by tests in vivo such as ischemia induced by carotid occlusion in the gerbil model.
In the [^3 H]-glycine binding assay, neuronal synaptic membranes are prepared from adult (about 250 g) male Sprague-Dawley rats. Freshly dissected cortices and hippocampi are homogenized in 0.32M sucrose (110 mg/mL). Synaptosomes are isolated by centrifugation (1000 xg, 10 min), the supernatant is pelleted (20,000 xg, 20 min) and resuspended in double-distilled water. The suspension was centrifuged for 20 minutes at 8,000 xg. The resulting supernatant and buffy coat are washed twice (48,000 xg, 10 mins, resuspension in double-deionized water). The final pellet is quickly frozen (dry ice ethanol bath) under double-deionized water and stored at -70 ° C. […]
For [^3 H]-glycine binding at the N-methyl-D-aspartate receptor, 20 nM [^3 H]-glycine (40-60 Ci/mmol, New England Nuclear, Boston, Mass.) is incubated with the membranes suspended in 50 mM tris (hydroxymethyl)aminomethane citrate, pH 7.1 for 30 minutes at 4° C. […] Radioactivity is estimated by liquid scintillation counting. […]

O=c1[nH]c2cc(Cl)ccc2c(=O)cc1NCCc1ccccc1 [Example 6, 8-Chloro-2,5-dioxo-3-phenethylamino-2,5-dihydro-1H-benz[b]azepine]
neuroprotection (relative to sham-operated control) [1]: about 43%

O=c1[nH]c2cc(Cl)ccc2c(=O)cc1N1CCCC1 [Example 12]
IC50 [2]: ~470 µM | neuroprotection (relative to sham-operated control) [1]: about 62%

O=c1[nH]c2cc(Cl)ccc2c(=O)cc1NC[C@H](O)[C@@H](O)[C@H](O)[C@H](O)CO [Example 19, 8-Chloro-3-(D-glucamino)-2,5-dioxo-2,5-dihydro-1H-benz[b]azepine]
IC50 [2]: ~43 µM | neuroprotection (relative to sham-operated control) [1]: about 80%
